Publication PMC9929129, “Towards Translation of PqsR Inverse Agonists: From In Vitro Efficacy Optimization to In Vivo Proof‐of‐Principle” (Advanced Science, 2023)

How the values were obtained:
[1] = SafetyScreen44 (Eurofins), whole panel; conditions: at 10 × 10^−6 M
Description: 1.4 Safety Pharmacology of Compound 24
1.4.1 Cerep panel (Eurofins)
Compound 24 was further profiled for its off-target interactions against a panel of 44 targets. The screening was done by Eurofins Pharma Discovery within the SafetyScreen44 Panel (Cerep, ITEM P270). In all assays binding/functional inhibition was determined at 10 µM.
Table S6. List of binding assays within the CEREP44 off-target panel and binding data for compound […]
Ca2+ channel (L, dihydropyridine site) (antagonist radioligand) 75.3
Norepinephrine transporter (h) (antagonist radioligand) 74.7
Potassium Channel hERG (human) [3H] Dofetilide 73.1 […]
5-HT transporter (h) (antagonist radioligand) 49.8 […]
MAO-A (antagonist radioligand) 24.9 kappa (h) (KOP) (agonist radioligand) 23.6 dopamine transporter (h) (antagonist radioligand) 22.7 […]
KV channel (antagonist radioligand) 14.2 […]
5-HT1A (h) (agonist radioligand) 11.3 alpha2A (h) (antagonist radioligand) 8.4 […]

TRPV4 channel = target: T1, TRPV4 channel (Homo sapiens, UniProt Q9HBA0); experiment: Ion channel profiling at Charles River: TRPV4; type: cell-based; conditions: expressed in CHO cells; read-out: ESTIMATED IC50
T1 construct: host or cells: CHO cells
T1 sequence (Q9HBA0 whole entry): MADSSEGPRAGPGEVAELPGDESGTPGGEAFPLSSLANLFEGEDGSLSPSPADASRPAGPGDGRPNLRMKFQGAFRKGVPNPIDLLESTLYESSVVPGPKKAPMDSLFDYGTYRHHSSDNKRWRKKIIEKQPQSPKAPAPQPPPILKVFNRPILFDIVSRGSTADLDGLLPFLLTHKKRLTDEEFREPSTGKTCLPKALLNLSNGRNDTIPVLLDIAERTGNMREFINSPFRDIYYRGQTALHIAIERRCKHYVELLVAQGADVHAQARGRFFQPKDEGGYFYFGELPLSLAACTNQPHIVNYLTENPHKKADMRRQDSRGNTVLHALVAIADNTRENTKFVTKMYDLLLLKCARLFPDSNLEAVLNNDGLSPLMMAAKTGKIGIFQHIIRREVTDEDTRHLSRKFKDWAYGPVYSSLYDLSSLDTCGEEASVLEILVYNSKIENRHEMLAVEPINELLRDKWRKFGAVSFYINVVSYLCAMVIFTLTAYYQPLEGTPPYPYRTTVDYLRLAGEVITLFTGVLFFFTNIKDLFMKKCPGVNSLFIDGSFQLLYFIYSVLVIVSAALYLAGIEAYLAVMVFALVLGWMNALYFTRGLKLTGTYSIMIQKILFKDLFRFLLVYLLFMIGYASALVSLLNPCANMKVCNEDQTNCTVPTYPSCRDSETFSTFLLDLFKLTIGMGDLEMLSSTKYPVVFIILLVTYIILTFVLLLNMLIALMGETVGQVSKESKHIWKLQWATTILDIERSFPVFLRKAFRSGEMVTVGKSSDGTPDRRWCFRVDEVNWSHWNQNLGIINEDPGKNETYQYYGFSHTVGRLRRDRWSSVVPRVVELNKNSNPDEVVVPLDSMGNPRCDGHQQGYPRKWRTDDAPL
Description: 1.4.3 Ion Channel Profiling at Charles River
Table S9. Compound 24 was tested against the following ion channels at Charles River Laboratories. […]
ScreenPatch Assay Kv1.3 potassium channel (human KCNA3 gene) expressed in CHO […]
FLIPR Assay expressed in HEK293 cells
GABAA α5/β3/γ2 ionotropic receptor (human GABRA5, GABRB3, >30 and GABRG2 genes, expressed in HEK293 cells […]
(§1) An increase in the number of colonies of at least two-fold over baseline (mean + SD of the vehicle control) and a dose response indicate a positive response. An […]
(§2) different from the vehicle control.
(§3) Where indicated, S9 fraction from the livers of Aroclor 1254-treated rats were included in the incubation at a final concentration of 4.5%. A NADPH-regenerating system was also included to ensure a steady supply of reducing equivalents.

CYP1A = CYP1A (Homo sapiens, UniProt P05177); experiment: Cytochrome P450 inhibition assay, CYP1A; type: in vitro ADME
CYP1A, sequence (P05177 2-516): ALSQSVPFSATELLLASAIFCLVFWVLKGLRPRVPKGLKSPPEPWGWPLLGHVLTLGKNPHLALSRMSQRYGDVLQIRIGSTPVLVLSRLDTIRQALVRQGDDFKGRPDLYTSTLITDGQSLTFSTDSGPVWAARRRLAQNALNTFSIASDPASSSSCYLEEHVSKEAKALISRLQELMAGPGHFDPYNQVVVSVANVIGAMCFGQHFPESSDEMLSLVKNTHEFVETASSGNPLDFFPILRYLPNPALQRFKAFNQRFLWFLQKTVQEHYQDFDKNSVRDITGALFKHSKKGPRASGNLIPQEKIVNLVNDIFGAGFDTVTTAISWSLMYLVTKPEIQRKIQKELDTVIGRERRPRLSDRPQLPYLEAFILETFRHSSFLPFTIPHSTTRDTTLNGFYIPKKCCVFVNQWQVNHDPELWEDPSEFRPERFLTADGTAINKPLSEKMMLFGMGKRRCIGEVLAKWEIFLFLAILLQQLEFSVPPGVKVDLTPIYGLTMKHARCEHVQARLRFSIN
Description: 1.4.4 Pharmacokinetic and off-target functional assays (Cyprotex)
Compound 24 was assayed at Cyprotex in functional assays for interference with important off-targets as well as important pharmacokinetic parameters. With the exception of plasma protein binding, a dose-response relationship was studied in order to calculate IC50 values.
Table S10. Information on in vitro ADMET assays performed at Cyprotex. […]
as §1, §2, §3

[2] = test system: 14 PA clinical isolates from bronchiectasis patients; experiment: Pyocyanin inhibition assay in clinical isolates; type: cell-based, Pseudomonas aeruginosa; conditions: 2 × 10^−6 M 24, LB-medium, 16 h
Description: Pyoverdine determinations. Precultures of each strain were grown 20 h at 37°C in M9 minimal […]
with 30 mM succinate, 2 mM MgSO , 10 μM FeSO and 2.5 mL L−1 of trace elements solution.[10] Next, […]
5 µl of each culture were transferred to 10 ml of M9 minimal medium devoid of iron and trace element solution, and cultured again for 24 h at 37°C with constant shaking. After incubation, the OD600 of the cultures was determined: The cell contained in 1 mL medium were harvested by centrifugation (5 min; 14,000 rpm) and the absorbance at 405 nm (A405nm) of 0.8 ml of the supernatant was determined spectrophotometrically and normalized to the OD600 of the culture measured before (i.e. A405nm, OD600-1). PA14 and PAO1 were also assayed as controls. The experiments were carried out at least in triplicates.
Pyocyanin inhibition assay. The inhibition of pyocyanin production in the clinical isolates (CIs) and the type strains (PA14 and PAO1) was tested by the treatment of LB-grown cultures incubated for 16 h at 37°C with constant shaking with 2 µM of 24/DMSO or with 2 µl of DMSO as control. Pyocyanin extraction and quantification were carried out as described in section 1.2.2. Pyocyanin concentrations (μg mL −1) were calculated by multiplication of its absorbance at 520 nm with a […]
correction factor of 17.072, and normalized to the OD600 of the culture.

Question: With `CC(C)Oc1ccc(-c2ncc(CNc3ccnc(C(F)(F)F)c3)cn2)cc1Cl` [Compound 24] as the compound, how does the “effects on any target of SafetyScreen44” value [1] read?
Answer: Its value is ≤ 80%.

Question: And the IC50 (TRPV4 channel)?
Answer: Its IC50 is > 30 µM.

Question: What about the IC50 (CYP1A) of the same compound?
Answer: Its IC50 is > 25 µM.

Question: And the “Production of pyocyanin by clinical isolates” value [2]?
Answer: The value was “dramatic reduction”.
